Reference: article PMC3785478, “Crystal Structures of Human Muscle Fructose-1,6-Bisphosphatase: Novel Quaternary States, Enhanced AMP Affinity, and Allosteric Signal Transmission Pathway” (PLoS ONE, 2013)

Legend:
[1] = target: T1, human muscle fructose-1,6-bisphosphatase (hmFru-1,6-Pase) (Homo sapiens, UniProt O00757); assay: coupled enzyme assay (G6PDH/phosphoglucose isomerase, NADP, […] nm), AMP titration; format: biochemical; conditions: read-out: Wild-type Fru-1,6-Pase
T1 construct: gene FBP2
T1 sequence (O00757 1-339): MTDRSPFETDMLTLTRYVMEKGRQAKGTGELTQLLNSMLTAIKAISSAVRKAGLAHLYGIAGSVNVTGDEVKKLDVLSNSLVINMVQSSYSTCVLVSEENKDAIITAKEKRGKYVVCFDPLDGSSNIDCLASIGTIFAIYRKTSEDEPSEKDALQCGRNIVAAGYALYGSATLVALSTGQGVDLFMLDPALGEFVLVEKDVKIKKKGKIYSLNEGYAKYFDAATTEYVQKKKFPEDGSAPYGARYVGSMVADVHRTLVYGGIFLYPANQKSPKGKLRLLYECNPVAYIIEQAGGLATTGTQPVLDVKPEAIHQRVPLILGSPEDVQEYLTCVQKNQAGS

[2] = target: T2, human muscle fructose-1,6-bisphosphatase (hmFru-1,6-Pase) (Homo sapiens, UniProt O00757, Q33R); assay: also coupled enzyme inhibition assay (I0.[…]); format: biochemical
T2 construct: gene FBP2; model includes residues 11–54 and 72–335
T2 sequence (O00757 2-339 Q33R): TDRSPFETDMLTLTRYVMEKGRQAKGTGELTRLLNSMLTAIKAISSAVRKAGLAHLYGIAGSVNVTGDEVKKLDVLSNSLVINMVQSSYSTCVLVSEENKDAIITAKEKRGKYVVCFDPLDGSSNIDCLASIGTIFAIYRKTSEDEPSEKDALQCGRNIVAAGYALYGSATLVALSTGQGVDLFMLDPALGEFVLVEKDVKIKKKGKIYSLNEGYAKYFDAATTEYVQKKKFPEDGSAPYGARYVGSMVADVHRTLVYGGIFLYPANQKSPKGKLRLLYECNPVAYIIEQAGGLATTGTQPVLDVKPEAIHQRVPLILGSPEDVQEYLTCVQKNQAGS

IC50 [1]: 0.19 µM
IC50 [2]: 3.65 µM
SMILES: Nc1ncnc2c1ncn2[C@@H]1O[C@H](COP(=O)(O)O)[C@@H](O)[C@H]1O [AMP]
